The values that follow are results of earlier work, collected in US20240000880A1, “A PHARMACEUTICAL COMPOSITION FOR PREVENTING AND TREATING LUNG INJURY, A PREPARATION METHOD THEREFOR AND A USE THEREOF” (priority 2020, published 2024).

Each structure is given as a SMILES string.

For this data set, the system named is rats with chronic obstructive pulmonary disease. As to conditions: rats with COPD; previous studies.

As for `Oc1ccc(C=Cc2cc(O)cc(O)c2)cc1` [resveratrol], the “antioxidant efficacy on chronic obstructive pulmonary disease” value was “has antioxidant efficacy” and the lung function entry is “can improve lung function to some extent”.
